{"source": "ChEMBL document CHEMBL1151032", "about": "“Local constrained shifty pseudopeptides inhibitors of rasfarnesyl transferase” (Bioorg Med Chem Lett, 1995)", "key": {"[1]": {"molecular_target": "T1, Protein farnesyltransferase (Homo sapiens, UniProt P49354+P49356)", "experiment": "In vitro inhibition of farnesyl transferase", "format": "protein-complex assay"}, "[2]": {"molecular_target": "T2, Protein farnesyltransferase (Mus musculus, UniProt Q61239+Q8K2I1)", "experiment": "Inhibition of farnesyl transferase in NIH3T3 cell based assay in non-reducing (-DTT) conditions", "format": "functional"}, "[3]": {"molecular_target": "T2, Protein farnesyltransferase", "experiment": "Inhibition of farnesyl transferase in NIH3T3 cell based assay under reducing (+DTT) conditions", "format": "functional"}, "[4]": {"molecular_target": "T1, Protein farnesyltransferase", "experiment": "In vitro inhibition of Human farnesyl transferase", "format": "protein-complex assay"}, "[5]": {"molecular_target": "Protein farnesyltransferase (Bos taurus, UniProt P29702+P49355)", "experiment": "In vitro inhibition of bovine farnesyl transferase", "format": "protein-complex assay"}, "[6]": {"tested_on": "NIH3T3", "experiment": "Inhibition of Ki-Ras-transformed NIH3T3 cell growth at 10 uM", "format": "functional", "settings": "Mus musculus; call rule not given here"}, "[7]": {"tested_on": "NIH3T3", "experiment": "Inhibition of Ki-Ras-transformed NIH3T3 cell growth at 5 uM", "format": "functional", "settings": "Mus musculus"}, "[8]": {"tested_on": "NIH3T3", "experiment": "Inhibition of v-Raf-transformed NIH3T3 cell growth at 10 uM", "format": "functional", "settings": "Mus musculus"}, "[9]": {"tested_on": "NIH3T3", "experiment": "Inhibition of Ha-Ras-transformed NIH3T3 cell growth at 1 uM", "format": "functional", "settings": "Mus musculus"}, "[10]": {"tested_on": "NIH3T3", "experiment": "Inhibition of Ha-Ras-transformed NIH3T3 cell growth at 5 uM", "format": "functional", "settings": "Mus musculus"}, "[11]": {"tested_on": "NIH3T3", "experiment": "Inhibition of Ki-Ras-transformed NIH3T3 cell growth at 1 uM", "format": "functional", "settings": "Mus musculus"}, "[12]": {"tested_on": "NIH3T3", "experiment": "Inhibition of Ha-Ras-transformed NIH3T3 cell growth at 10 uM", "format": "functional", "settings": "Mus musculus"}, "[13]": {"molecular_target": "T1, Protein farnesyltransferase", "experiment": "In vitro inhibition of farnesyl transferase enzyme (inactive)", "format": "protein-complex assay"}}, "data": [{"smiles": "CSCC[C@H](NC(=O)[C@@H]1Cc2ccccc2CN1C(=O)CN(CCSSCCN(CC(=O)N1Cc2ccccc2C[C@H]1C(=O)N[C@@H](CCSC)C(=O)O)C(=O)OC(C)(C)C)C(=O)OC(C)(C)C)C(=O)O", "values": [{"measurement": "IC50", "setting": "[1]", "result": "> 100", "unit": "µM"}, {"measurement": "IC50", "setting": "[2]", "result": "> 1000", "unit": "µM"}, {"measurement": "IC50", "setting": "[3]", "result": "> 1000", "unit": "µM"}]}, {"smiles": "CSCC[C@H](NC(=O)[C@@H]1Cc2ccccc2CN1C(=O)[C@H](C(C)C)N(C)C(=O)[C@@H](N)CS)C(=O)O", "values": [{"measurement": "IC50", "setting": "[4]", "result": 0.005, "unit": "µM"}]}, {"smiles": "CSCC[C@H](NC(=O)[C@H](Cc1ccccc1)NC(=O)[C@@H](NC[C@@H](N)CS)C(C)C)C(=O)O", "values": [{"measurement": "IC50", "setting": "[5]", "result": 0.023, "unit": "µM"}]}, {"smiles": "CSCC[C@H](NC(=O)[C@@H]1Cc2ccccc2CN1C(=O)CN(CCS)C(=O)OC(C)(C)C)C(=O)O", "values": [{"measurement": "IC50", "setting": "[1]", "result": "> 100", "unit": "µM"}]}, {"smiles": "CSCCC(NC(=O)C1Cc2ccccc2CN1CC(=O)NCCS)C(=O)O", "note": "(stereo not given)", "values": [{"measurement": "IC50", "setting": "[1]", "result": 2, "unit": "µM"}]}, {"smiles": "CSCC[C@H](NC(=O)[C@@H]1Cc2ccccc2CN1C(=O)CNCCS)C(=O)O", "values": [{"measurement": "IC50", "setting": "[1]", "result": 0.1, "unit": "µM"}]}, {"smiles": "COC(=O)[C@H](CCSC)NC(=O)[C@@H]1Cc2ccccc2CN1C(=O)CNCCS", "values": [{"measurement": "IC50", "setting": "[1]", "result": 0.29, "unit": "µM"}]}, {"smiles": "COC(=O)[C@H](CCSC)NC(=O)[C@@H]1Cc2ccccc2CN1C(=O)CN(CCSSCCN(CC(=O)N1Cc2ccccc2C[C@H]1C(=O)N[C@@H](CCSC)C(=O)OC)C(=O)OC(C)(C)C)C(=O)OC(C)(C)C", "values": [{"measurement": "IC50", "setting": "[1]", "result": "> 100", "unit": "µM"}, {"measurement": "IC50", "setting": "[2]", "result": "> 1000", "unit": "µM"}, {"measurement": "IC50", "setting": "[3]", "result": "> 1000", "unit": "µM"}]}, {"smiles": "COC(=O)[C@H](CCSC)NC(=O)[C@@H]1Cc2ccccc2CN1C(=O)CNCCSSCCNCC(=O)N1Cc2ccccc2C[C@H]1C(=O)N[C@@H](CCSC)C(=O)OC", "values": [{"measurement": "IC50", "setting": "[1]", "result": 0.145, "unit": "µM"}, {"measurement": "IC50", "setting": "[2]", "result": 100, "unit": "µM"}, {"measurement": "IC50", "setting": "[3]", "result": 100, "unit": "µM"}, {"measurement": "inhibition at 10 µM", "setting": "[6]", "result": 97, "unit": "%"}, {"measurement": "inhibition at 5 µM", "setting": "[7]", "result": 89, "unit": "%"}, {"measurement": "inhibition at 10 µM", "setting": "[8]", "result": 9, "unit": "%"}, {"measurement": "inhibition at 1 µM", "setting": "[9]", "result": 9, "unit": "%"}, {"measurement": "inhibition at 5 µM", "setting": "[10]", "result": 80, "unit": "%"}, {"measurement": "inhibition at 1 µM", "setting": "[11]", "result": 24, "unit": "%"}, {"measurement": "inhibition at 10 µM", "setting": "[12]", "result": 91, "unit": "%"}]}, {"smiles": "CSCCC(NC(=O)C1Cc2ccccc2CN1CC(=O)NCCSSCCNC(=O)CN1Cc2ccccc2CC1C(=O)NC(CCSC)C(=O)O)C(=O)O", "note": "(stereo not given)", "values": [{"measurement": "IC50", "setting": "[13]", "result": "Not Active"}]}, {"smiles": "CSCC[C@H](NC(=O)[C@@H]1Cc2ccccc2CN1C(=O)CNCCSSCCNCC(=O)N1Cc2ccccc2C[C@H]1C(=O)N[C@@H](CCSC)C(=O)O)C(=O)O", "values": [{"measurement": "IC50", "setting": "[1]", "result": 0.05, "unit": "µM"}, {"measurement": "IC50", "setting": "[2]", "result": "> 1000", "unit": "µM"}, {"measurement": "IC50", "setting": "[3]", "result": "> 1000", "unit": "µM"}]}, {"smiles": "COC(=O)[C@H](CCSC)NC(=O)[C@@H]1Cc2ccccc2CN1C(=O)CN(CCS)C(=O)OC(C)(C)C", "values": [{"measurement": "IC50", "setting": "[1]", "result": "> 100", "unit": "µM"}]}, {"smiles": "COC(=O)C(CCSC)NC(=O)C1Cc2ccccc2CN1CC(=O)NCCSSCCNC(=O)CN1Cc2ccccc2CC1C(=O)NC(CCSC)C(=O)OC", "note": "(stereo not given)", "values": [{"measurement": "IC50", "setting": "[13]", "result": "Not Active"}]}, {"smiles": "COC(=O)C(CCSC)NC(=O)C1Cc2ccccc2CN1CC(=O)NCCS", "note": "(stereo not given)", "values": [{"measurement": "IC50", "setting": "[13]", "result": "Not Active"}]}, {"smiles": "CSCC[C@H](NC(=O)[C@H](Cc1ccccc1)NC[C@@H](NC[C@@H](N)CS)C(C)C)C(=O)O", "values": [{"measurement": "IC50", "setting": "[5]", "result": 0.021, "unit": "µM"}]}]}
